Measurements from US20080118576A1, “PREDICTION OF AN AGENT'S OR AGENTS' ACTIVITY ACROSS DIFFERENT CELLS AND TISSUE TYPES” (priority 2006, published 2008).

Assays:
[1] = test system: 40 human urothelial (bladder) cancer cell lines; test: Alamar Blue growth inhibition of 40 bladder cancer cell lines, single drugs, 72 hours; assay type: cell-based; conditions: for criterion dose (CR): minimum dose at which at least 25% of cell lines showed growth inhibition >50%; for number of resistant cell lines / number of sensitive cell lines: of 40 bladder cancer cell lines; for number of sensitive cell lines: log10(GI50) ≤ CR
Procedure: The human bladder cancer cell lines and the respective growth conditions used in this study have been previously described (6, 7). Cisplatin was purchased from Sigma (St. Louis, Mo.), dissolved in Dulbecco's phosphate-buffered saline, and aliquoted in 1 mg/ml stocks. Paclitaxel was purchased from Sigma (St. Louis, Mo.), dissolved in Dimethyl Sulphoxide (DMSO), and aliquoted in 1 mM stocks. Gemcitabine was purchased from the University of Virginia Medical Center Pharmacy, dissolved in PBS, and aliquoted in 0.1 M stocks. Cell lines were maintained in appropriate media, in a humidified atmosphere containing 5% CO2 in air, except CRL2169 (SW780) which requires no CO2 for its growth. Cell lines were subcultured in an aqueous solution of 0.05% trypsin (Difco, 1:250) and 0.016% EDTA. Each cell line was used within 10 passages from its archival passage number in order to minimize any long term cell culture effects. Gene expression analysis of bladder cell lines was carried out as previously described using the HG-U133A GeneChip® array (Affymetrix®, Santa Clara, Calif., USA) (6, 7). The image file was analyzed with RMA, to obtain the expression intensity values of the microarray data (8).
Cell lines were seeded in 96-well cell culture plates (Costar) at a density of 1000 cells/well. 24 hours later, cells were exposed to the drugs diluted in RPMI-1640 medium, containing 10% FBS, concentration that is required by more than 75% of cell lines for their normal growth, at a total volume of 200 μL. Each drug dose was plated in triplicate, and the experiment was repeated four to seven times. The doses for Cisplatin were 200, 400, 800, 1600, 3200, and 6400 ng/ml; for Paclitaxel 0.0001, 0.001, 0.002, 0.005, 0.01, and 0.1 μM; for Gemcitabine 0.001, 0.01, 0.1, 1, 10, 100 μM.
From the dose-response data, log 10(GI50) values (log base 10 of concentration required to inhibit cell growth by 50% in comparison with untreated control) were estimated for all the cell lines by deriving log(dose) concentration curves on cell count percents as described below. To estimate the GI50 values reliably, we computed Euclidean distances among all replicated experiments, and excluded outlying experiments if they were in the top 20% among all measured distances. This percent was determined heuristically based on the general observations in experimental quality control. […] Subsequently, the data were fitted to a sigmoidal function such as the following nonlinear regression model for estimating each cell line's dose response curve:
Percent=1−1/(1+exp(−(log 10(dose)−β)/α),
where α and β determine the shape of a fitted line.
This sigmoidal regression function was used to capture the natural shapes of drug dose responses. Thus, the estimated β is the predicted log 10(GI50) value, the expected log concentration achieving the cell count reduction of 50%. Similarly, log 10(GI30), and log 10(GI70) values, i.e. the concentrations required to inhibit cell growth by 30%, and 70% in comparison with untreated control, were also calculated.
Cell line drug sensitivity was classified using the GI estimates and application of a criterion dose (CR) concept. […] Using these CR concentrations, each cell line was defined as sensitive if log 10(GI50)≦CR; strongly sensitive if […], or resistant if log 10(GI70)>CR, and intermediate if log 10(GI50)>CR and log 10(GI70)<CR.
To approach the development of molecular models of chemotherapeutic sensitivity in human bladder cancer, we focused on a well-defined series of 40 urothelial cell lines for which we could measure sensitivity to relevant chemotherapeutic agents in vitro and correlate these responses with global measurements of gene expression.

[2] = test system: BLA-40 human bladder cancer cell lines; test: In vitro growth inhibition (GI50) in BLA-40 cells, 48 hours, as for NCI-60; assay type: cell-based; conditions: for potency in BLA-40 compared with NCI-60 tissue panels: BLA-40 vs nine tissue-specific panels of NCI-60
Description: Sensitivity of human bladder cancer cells to cisplatin, paclitaxel and NSC 637993. To test the predictive models, we performed in vitro drug response experiments, and then determined GI50 values for each bladder cell line for cisplatin, paclitaxel, and compound NSC 637993 (Supplementary Materials and Methods). Sensitivity to the agents was generated by a dose response experiments carried out on the BLA-40 cells as described for the NCI-60. The final concentrations of cisplatin used were 200, 400, 800, 1600, 3200, and 6400 ng/ml; those of Paclitaxel and NSC 637993 were 0.1, 1, 2, 5, 10, and 100 nM. In each case, the cells were plated on Day 0, exposed to drug for 48 hours) at 37° C., and then assayed. Each experiment was repeated three to five independent times, and the results were expressed as a fraction of the difference between initial cell count and untreated control. Log 10(GI50) values were then estimated from the resulting dose-response curves. Bladder cell lines were defined as sensitive or resistant as described above for the NCI-60 panel. […]
In the first application of the COXEN algorithm, for example, Cell Sets 1 and 2 were the NCI-60 and BLA-40 cell panels, respectively; the Step 1 drug activities were those assessed by DTP in the NCI-60 using a 48-hour sulforhodamine B assay; the “molecular characteristic” in Steps 2 and 4 was transcript expression level, as assessed using Affymetrix HG-U133A microarrays; the algorithm in Step 3 was “Significance Analysis of Microarrays (SAM)” or two-sample t-test; Step 5 was a novel “co-expression extrapolation” algorithm; Step 6 was another novel algorithm, “Misclassification-Penalized Posterior” (MiPP), which we recently introduced for selection of the best mathematical “models” for the prediction; and applying the prediction models obtained in Step 6, independent testing of the predictions on BLA-40 cells was performed, mimicking the way the assay for the NCI-60 by DTP.

bladder cancer = conditions: cited from earlier work
breast cancer = conditions: cited from earlier work
breast cancer patients = conditions: 24 patients, four cycles of neoadjuvant docetaxel, original study; cited from earlier work
[3] = test system: estrogen receptor-positive breast cancer patients; test: TAM-60 breast cancer clinical trial, time to recurrence classification; assay type: in vivo, human; conditions: of 60 patients
Procedure: In the tamoxifen clinical trial (TAM-60), 60 postmenopausal breast cancer patients with estrogen receptor-positive tumors were treated and followed for up to 180 months. Genome-wide expression profiling was performed on the primary tumors using a customized cDNA microarray platform.

| Structure (SMILES) | criterion dose (CR) [1] | number of resistant cell lines [1] | number of sensitive cell lines [1] | further results |
| --- | --- | --- | --- | --- |
| Nc1ccn([C@@H]2O[C@H](CO)[C@@H](O)C2(F)F)c(=O)n1 [Gemcitabine] | 0.1 µM | 11 | 8 |  |
| CCN(CC)CCNc1ccc2nc(C)n3c4ccc(OC)cc4c(=O)c1c23 [NSC 637993] |  |  |  | proportion of BLA-40 cell types with GI50 less than 10-6M ([2]; BLA-40 panel): > 60%; potency in BLA-40 compared with NCI-60 tissue panels [2]: more effective at a lower dose (1×10^−6M) in bladder cancer; potency in BLA-40 compared with NCI-60 tissue panels ([2]; listed as NSC637993): more potent overall in the BLA-40 bladder cancers than in any of the organ-of-origin types included in the NCI-60 |
| CC(=O)O[C@H]1C(=O)[C@@]2(C)[C@H]([C@H](OC(=O)c3ccccc3)[C@]3(O)C[C@H](OC(=O)[C@H](O)[C@@H](NC(=O)c4ccccc4)c4ccccc4)C(C)=C1C3(C)C)[C@]1(OC(C)=O)CO[C@@H]1C[C@@H]2O [Paclitaxel] | 0.005 µM | 11 | 17 |  |
| N.N.[Cl][Pt][Cl] [cisplatin] | 400 ng/mL | 11 | 16 |  |
| O=c1[nH]cc(F)c(=O)[nH]1 [compound 19893] |  |  |  | Clinical response (bladder cancer): 23.1; Clinical response rate (breast cancer): 44.4 |
| CC(=O)O[C@@]12CO[C@@H]1C[C@H](O)[C@@]1(C)C(=O)[C@H](O)C3=C(C)[C@@H](OC(=O)[C@H](O)[C@@H](NC(=O)OC(C)(C)C)c4ccccc4)C[C@@](O)([C@@H](OC(=O)c4ccccc4)[C@H]21)C3(C)C [docetaxel] |  |  |  | number of non-responder patients (breast cancer patients): 13; number of responder patients (breast cancer patients): 11 |
| CC/C(=C(\c1ccccc1)c1ccc(OCCN(C)C)cc1)c1ccccc1 [tamoxifen] |  |  |  | number of non-responders (recurrence <50 months) [3]: 16; number of responders (long-term survival >130 months) [3]: 11 |
